# Values of other authors as cited in patent US7192914B1, “Prevention of atherosclerosis and undesired blood clotting by reducing von Willebrand factor” (The Regents of the University of California, priority 1999, dated 2007).
# Tested on: human endothelial cells
# Details: human endothelial cells treated with tunicamycin; Wagner et al. (1986) J. Cell Biol. 102: 1320-4
substance,measurement,value
tunicamycin,effect on secreted vWF,absence of secreted vWF
